Literature values as cited in publication PMC9811530 (Experimental and Clinical Endocrinology & Diabetes, 2022).
Where two headings read alike, the source gives them in different places.

How the values were obtained:
11beta-HSD1 in AT = details: single dose, 24 h after dosing; cited from earlier work
11beta-HSD1 in the liver = 11beta-HSD1 in the liver (Homo sapiens, UniProt P28845); details: cited from earlier work
Sequence of 11beta-HSD1 in the liver (P28845 whole entry): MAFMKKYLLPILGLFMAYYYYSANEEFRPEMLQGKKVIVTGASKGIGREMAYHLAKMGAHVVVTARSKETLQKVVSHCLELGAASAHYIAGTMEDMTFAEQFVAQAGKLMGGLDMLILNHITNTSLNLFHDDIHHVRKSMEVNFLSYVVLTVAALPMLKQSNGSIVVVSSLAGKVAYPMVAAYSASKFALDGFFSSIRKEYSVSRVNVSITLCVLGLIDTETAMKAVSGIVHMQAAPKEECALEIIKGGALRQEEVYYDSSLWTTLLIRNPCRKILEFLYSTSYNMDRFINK

## CC(C)[C@]1(C)SC(=N[C@H]2C[C@@H]3CC[C@H]2C3)NC1=O [AMG 221]
11beta-HSD1 in AT
  11beta-HSD1 inhibition in AT: > 90%

## CCCSc1nc(N2CCC[C@@H](CC(=O)O)C2)ccc1C(=O)NC1CCCCC1 [AZD4017]
11beta-HSD1 in the liver; after 9 days
  maximum decrease of the (aTHF+THF)/THE ratio: 92%

## C[C@@H](c1ccc(-c2ccn(C)c(=O)c2)cc1)N1CC[C@](CC(C)(C)O)(c2ccccc2)OC1=O [BI 135585]
11beta-HSD1 in AT
  inhibition of 11beta-HSD1 in AT: 90%

## N#Cc1ccc(-c2ccc(S(=O)(=O)Nc3cccc(N)n3)cc2)cc1 [PF-915275]
11beta-HSD1 in the liver; after 14 days of treatment
  maximum decrease of the (aTHF+THF)/THE ratio: 26%
